Test results: article PMC4268243 (Nuclear medicine and biology, 2014)

Assays:
Assay type in all cases: in vivo
[1] = test system: U87 tumor xenograft; test: Biodistribution in U87 tumor-bearing SCID mice; conditions: listed as (R)-[^18F] FAMP 1
[2] = test system: DU145 tumor xenograft; test: Biodistribution in DU145 tumor-bearing SCID mice; conditions: listed as (R)-[^18F] FAMP 1
[3] = test system: MDA MB468 tumor xenograft; test: Biodistribution in MDA MB468 tumor-bearing SCID mice
[4] = 15 min post injection, listed as (R)-[^18F] FAMP 1
[5] = 30 min post injection, listed as (R)-[^18F] FAMP 1
[6] = 60 min post injection, listed as (R)-[^18F] FAMP 1
[7] = 120 min post injection, listed as (R)-[^18F] FAMP 1

CC(N)(C[18F])C(=O)O [(R)-[^18F]1] [2-amino-3-[^18F]fluoro-2-methylpropanoic acid]
uptake in blood ([1]; 15 min post injection): 3.2±0.2 %ID/g | uptake in bone ([1]; 15 min post injection): 3.2±1.5 %ID/g | uptake in brain ([1]; 15 min post injection): 0.8±0.2 %ID/g | uptake in heart ([1]; 15 min post injection): 4.7±1.2 %ID/g | uptake in kidney ([1]; 15 min post injection): 23±2.5 %ID/g | uptake in liver ([1]; 15 min post injection): 7.6±2.9 %ID/g | uptake in lung ([1]; 15 min post injection): 4.7±0.6 %ID/g | uptake in muscle ([1]; 15 min post injection): 2.2±0.5 %ID/g | uptake in pancreas ([1]; 15 min post injection): 62±6.3 %ID/g | uptake in spleen ([1]; 15 min post injection): 19±6.4 %ID/g | uptake in tumor ([1]; 15 min post injection): 6.5±1.2 %ID/g | uptake in blood ([1]; 30 min post injection): 2.6±0.7 %ID/g | uptake in bone ([1]; 30 min post injection): 3.5±0.5 %ID/g | uptake in brain ([1]; 30 min post injection): 0.9±0.2 %ID/g | uptake in heart ([1]; 30 min post injection): 4.3±0.6 %ID/g | uptake in kidney ([1]; 30 min post injection): 15±2.1 %ID/g | uptake in liver ([1]; 30 min post injection): 7.7±1.5 %ID/g | uptake in lung ([1]; 30 min post injection): 3.4±0.5 %ID/g | uptake in muscle ([1]; 30 min post injection): 2.2±0.5 %ID/g | uptake in pancreas ([1]; 30 min post injection): 43±8.2 %ID/g | uptake in spleen ([1]; 30 min post injection): 13±2.4 %ID/g | uptake in tumor ([1]; 30 min post injection): 6.0±0.9 %ID/g | uptake in blood ([1]; 60 min post injection): 1.6±0.4 %ID/g | uptake in bone ([1]; 60 min post injection): 3.2±0.8 %ID/g | uptake in brain ([1]; 60 min post injection): 1.2±0.2 %ID/g | uptake in heart ([1]; 60 min post injection): 4.2±0.9 %ID/g | uptake in kidney ([1]; 60 min post injection): 8.0±1.8 %ID/g | uptake in liver ([1]; 60 min post injection): 6.9±1.4 %ID/g | uptake in lung ([1]; 60 min post injection): 2.4±0.6 %ID/g | uptake in muscle ([1]; 60 min post injection): 2.9±0.6 %ID/g | uptake in pancreas ([1]; 60 min post injection): 28±5.0 %ID/g | uptake in spleen ([1]; 60 min post injection): 7.0±1.4 %ID/g | uptake in tumor ([1]; 60 min post injection): 4.2±0.3 %ID/g | uptake in blood ([1]; 120 min post injection): 0.8±0.1 %ID/g | uptake in bone ([1]; 120 min post injection): 1.5±0.2 %ID/g | uptake in brain ([1]; 120 min post injection): 1.2±0.1 %ID/g | uptake in heart ([1]; 120 min post injection): 3.6±0.4 %ID/g | uptake in kidney ([1]; 120 min post injection): 4.2±0.4 %ID/g | uptake in liver ([1]; 120 min post injection): 8.0±0.7 %ID/g | uptake in lung ([1]; 120 min post injection): 1.3±0.2 %ID/g | uptake in muscle ([1]; 120 min post injection): 1.6±0.2 %ID/g | uptake in pancreas ([1]; 120 min post injection): 15.1±3.2 %ID/g | uptake in spleen ([1]; 120 min post injection): 3.5±0.4 %ID/g | uptake in tumor ([1]; 120 min post injection): 3.1±0.8 %ID/g | uptake in blood ([2]; 15 min post injection): 5.2±1.2 %ID/g | uptake in bone ([2]; 15 min post injection): 3.9±1.0 %ID/g | uptake in brain ([2]; 15 min post injection): 1.0±0.3 %ID/g | uptake in heart ([2]; 15 min post injection): 5.8±1.5 %ID/g | uptake in kidney ([2]; 15 min post injection): 26±7.5 %ID/g | uptake in liver ([2]; 15 min post injection): 7.2±3.4 %ID/g | uptake in lung ([2]; 15 min post injection): 7.6±1.8 %ID/g | uptake in muscle ([2]; 15 min post injection): 2.9±0.7 %ID/g | uptake in pancreas ([2]; 15 min post injection): 62±20 %ID/g | uptake in spleen ([2]; 15 min post injection): 17±7.6 %ID/g | uptake in tumor ([2]; 15 min post injection): 8.8±1.9 %ID/g | uptake in blood ([2]; 30 min post injection): 3.7±0.3 %ID/g | uptake in bone ([2]; 30 min post injection): 4.0±0.3 %ID/g | uptake in brain ([2]; 30 min post injection): 1.3±0.1 %ID/g | uptake in heart ([2]; 30 min post injection): 5.6±0.6 %ID/g | uptake in kidney ([2]; 30 min post injection): 16±2.2 %ID/g | uptake in liver ([2]; 30 min post injection): 6.3±0.8 %ID/g | uptake in lung ([2]; 30 min post injection): 3.1±0.4 %ID/g | uptake in muscle ([2]; 30 min post injection): 3.5±0.5 %ID/g | uptake in pancreas ([2]; 30 min post injection): 52±3.8 %ID/g | uptake in spleen ([2]; 30 min post injection): 13±1.4 %ID/g | uptake in tumor ([2]; 30 min post injection): 8.4±1.1 %ID/g | uptake in blood ([2]; 60 min post injection): 2.2±0.3 %ID/g | uptake in bone ([2]; 60 min post injection): 3.2±0.7 %ID/g | uptake in brain ([2]; 60 min post injection): 1.5±0.3 %ID/g | uptake in heart ([2]; 60 min post injection): 4.8±1.0 %ID/g | uptake in kidney ([2]; 60 min post injection): 10±0.8 %ID/g | uptake in liver ([2]; 60 min post injection): 5.5±1.0 %ID/g | uptake in lung ([2]; 60 min post injection): 2.0±0.4 %ID/g | uptake in muscle ([2]; 60 min post injection): 3.0±0.7 %ID/g | uptake in pancreas ([2]; 60 min post injection): 39±6.9 %ID/g | uptake in spleen ([2]; 60 min post injection): 11±2.9 %ID/g | uptake in tumor ([2]; 60 min post injection): 7.9±1.7 %ID/g | uptake in blood ([2]; 120 min post injection): 1.6±0.3 %ID/g | uptake in bone ([2]; 120 min post injection): 2.6±0.5 %ID/g | uptake in brain ([2]; 120 min post injection): 1.6±0.2 %ID/g | uptake in heart ([2]; 120 min post injection): 4.9±0.9 %ID/g | uptake in kidney ([2]; 120 min post injection): 7.9±0.7 %ID/g | uptake in liver ([2]; 120 min post injection): 3.6±0.6 %ID/g | uptake in lung ([2]; 120 min post injection): 2.1±0.8 %ID/g | uptake in muscle ([2]; 120 min post injection): 2.7±0.8 %ID/g | uptake in pancreas ([2]; 120 min post injection): 27±4.5 %ID/g | uptake in spleen ([2]; 120 min post injection): 6.0±0.9 %ID/g | uptake in tumor ([2]; 120 min post injection): 6.8±0.8 %ID/g | uptake in blood [3, 4]: 3.0±0.2 %ID/g | uptake in bone [3, 4]: 2.7±0.6 %ID/g | uptake in brain [3, 4]: 0.7±0.2 %ID/g | uptake in heart [3, 4]: 3.9±0.6 %ID/g | uptake in kidney [3, 4]: 17±2.3 %ID/g | uptake in liver [3, 4]: 4.4±0.9 %ID/g | uptake in lung [3, 4]: 5.4±0.6 %ID/g | uptake in muscle [3, 4]: 2.2±0.8 %ID/g | uptake in pancreas [3, 4]: 61±8.4 %ID/g | uptake in spleen [3, 4]: 8.7±2.2 %ID/g | uptake in tumor [3, 4]: 6.0±1.8 %ID/g | uptake in blood [3, 5]: 2.0±0.4 %ID/g | uptake in bone [3, 5]: 2.2±0.6 %ID/g | uptake in brain [3, 5]: 0.8±0.1 %ID/g | uptake in heart [3, 5]: 3.5±1.0 %ID/g | uptake in kidney [3, 5]: 9.1±2.8 %ID/g | uptake in liver [3, 5]: 4.5±1.0 %ID/g | uptake in lung [3, 5]: 3.3±1.1 %ID/g | uptake in muscle [3, 5]: 2.0±0.6 %ID/g | uptake in pancreas [3, 5]: 39±11 %ID/g | uptake in spleen [3, 5]: 6.5±1.1 %ID/g | uptake in tumor [3, 5]: 5.3±1.7 %ID/g | uptake in tumor ([3]; 60 min post injection): 4.8±1.2 %ID/g | uptake in blood [3, 6]: 1.1±0.3 %ID/g | uptake in bone [3, 6]: 1.7±0.5 %ID/g | uptake in brain [3, 6]: 0.8±0.1 %ID/g | uptake in heart [3, 6]: 3.3±0.8 %ID/g | uptake in kidney [3, 6]: 5.0±1.1 %ID/g | uptake in liver [3, 6]: 3.8±0.9 %ID/g | uptake in lung [3, 6]: 2.2±0.5 %ID/g | uptake in muscle [3, 6]: 2.0±0.6 %ID/g | uptake in pancreas [3, 6]: 20±7.2 %ID/g | uptake in spleen [3, 6]: 4.1±1.3 %ID/g | uptake in blood [3, 7]: 0.5±0.2 %ID/g | uptake in bone [3, 7]: 1.1±0.5 %ID/g | uptake in brain [3, 7]: 0.9±0.1 %ID/g | uptake in heart [3, 7]: 2.3±0.4 %ID/g | uptake in kidney [3, 7]: 2.4±1.1 %ID/g | uptake in liver [3, 7]: 4.1±0.8 %ID/g | uptake in lung [3, 7]: 1.1±0.4 %ID/g | uptake in muscle [3, 7]: 1.6±0.6 %ID/g | uptake in pancreas [3, 7]: 11±4.6 %ID/g | uptake in spleen [3, 7]: 2.2±1.1 %ID/g | uptake in tumor [3, 7]: 3.6±0.7 %ID/g
